The values that follow are results of earlier work, collected in patent US20050181516A1, “Bioequivalence determination using expression profiling” (priority 2002, published 2005).

Series [1] relates to reperfusion after ischemia in the brain. To be noted: in vivo; cited from earlier work.
For the next series, the system named is T cells and mast cells. To be noted: in vitro; cited from earlier work.

Take `CC[C@@H]1/C=C(\C)C[C@H](C)C[C@H](OC)[C@H]2O[C@@](O)(C(=O)C(=O)N3CCCC[C@H]3C(=O)O[C@H](/C(C)=C/[C@@H]3CC[C@H](Cl)[C@H](OC)C3)[C@H](C)[C@@H](O)CC1=O)[C@H](C)C[C@@H]2OC` [ASM981, 33-Epichloro-33-desoxy-ascomycin]: the “anti-inflammatory properties in reperfusion after ischemia in the brain” value in series [1] is recorded as “successfully tested”. For the same compound, in the series on T cells and mast cells, the IgE promoter activity entry was “decrease”; the “T cell activation and proliferation” value was “decrease”; the inflammatory mediators release entry is reported as “impaired”.
